Source: patent publication US20050019926A1, “Compositions of nucleic acids and cationic aminoglycosides and methods of using and preparing the same” (Aradigm Corporation, priority 2001, published 2005)

How the values were obtained:
plasmid DNA = assay: agarose gel electrophoresis (gel retardation) of nucleic acid-aminoglycoside complexes; format: binding; settings: plasmid DNA complexed with 5-100 mM aminoglycoside
Experimental: Plasmid DNA and the three different prototype aminoglycosides (neomycin, gentamycin, tobramycin) were diluted to 2× the final desired concentration in separate vials. In formulations with a molar excess of DNA, the diluted aminoglycoside solution was added to the DNA using a pipette with light vortexing. In formulations with a molar excess of aminoglycoside, the DNA was added to the aminoglycoside solution with light vortexing. The formulations were allowed to rest for about 30 minutes before characterization. Complexes of Nucleic Acid-Aminoglycoside were prepared according to the above described method and then analyzed using agarose gel electrophoresis to verify that the nucleic acids were being complexed with the aminoglycosides. Specifically, complexes having varying doses of DNA to three different aminoglycosides were prepared such that plasmid DNA was complexed with 5-100 mM of Neomycin, Tobramycin and Gentamicin.

[1] = intravenous and subcutaneous; patients with normal renal function; Physicians' Desk Reference, 2001; cited from earlier work

| Molecule | gel retardation (complexation of DNA with aminoglycoside) (plasmid DNA) | high dose delivered without adverse or unacceptable therapeutic effects [1] |
| --- | --- | --- |
| NC[C@H]1O[C@H](O[C@H]2[C@H](O)[C@@H](O[C@H]3O[C@H](CO)[C@@H](O)[C@H](N)[C@H]3O)[C@H](N)C[C@@H]2N)[C@H](N)C[C@@H]1O [Tobramycin, tobramycin] | dose-dependant increase in gel retardation |  |
| NCC[C@H](O)C(=O)N[C@@H]1C[C@H](N)[C@@H](O[C@H]2O[C@H](CN)[C@@H](O)[C@H](O)[C@H]2O)[C@H](O)[C@H]1O[C@H]1O[C@H](CO)[C@@H](O)[C@H](N)[C@H]1O [amikacin] |  | 15 mg/kg of body weight per day |
| Gentamicin | dose-dependant increase in gel retardation | 5 mg/kg of body weight per day |
| neomycin | dose-dependant increase in gel retardation |  |
